Patent US20050153872A1, “Methods and compositions for the treatment of infection” (priority 2004, published 2005)

Key:
Enterococcus (20) = assay: In vitro antibacterial activity (MIC), clinical isolates; format: cell-based; conditions: 20 Enterococcus clinical isolates
Summary of the method: (§1)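 Clinical isolates collected in Sichuan and Beijing in 2002, identified with the API system, were exposed to test compound to determine MIC50, MIC90 and MIC range. S. aureus ATCC25923, 29213 and BAA-42 served as control strains.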

[1] = tested on: Staphylococcus aureus MRSA strain (80); assay: as above; format: cell-based; conditions: 80 MRSA clinical isolates
Summary of the method: as §1

[2] = tested on: Staphylococcus aureus MSSA strain (88); assay: as above; format: cell-based; conditions: 88 MSSA clinical isolates
Summary of the method: as §1

[3] = tested on: Staphylococcus epidermidis MSSE strain (21); assay: as above; format: cell-based; conditions: 21 MSSE clinical isolates
Summary of the method: as §1

[4] = tested on: Enterococcus faecalis ATCC 700802; assay: microbe, parasite or virus in culture; format: cell-based; conditions: Enterococcus faecalis, ATCC700802
[5] = tested on: Enterococcus faecalis ATCC 700802; assay: In vivo protection of infected mice; set-up: species or system Kungming mice; conditions: mice, i.p. infection 8.0 × 10^6 cfu/ml
Experimental: (§2) The following experiments were performed by Pharmacology Lab, National Sichuan antibiotic industril institute, Chengdu, Sichuan.
(§3) The agents described above were diluted with sterilized water to final concentrations of 10 mg/L, 5 mg/Land 2.5 mg/L.
(§4) Staphylococcus aureus ATCC BAA-42(MRSA) and enterococcus faecalis ATCC 700802 were used as control strains.
(§5) 170 mice (Kungming mice: 18˜22 g, 85 males and 85 females) were randomly divided into four groups and injected with a fatal dosage of staphylococci, enterococcus and E. coli intraperitoneally. […] Mice were inspected every 24 hours for 7-14 days. Dead mice were counted as positive results. The results are depicted in Table 3 and FIGS. 4 and 5A-B.

[6] = tested on: Staphylococcus aureus MRSA 02-18; assay: In vivo protection of infected mice; set-up: species or system Kungming mice; conditions: mice, i.p. infection 1.7 × 10^5 cfu/ml
Experimental: as §2, §3, §4, §5

[7] = tested on: Staphylococcus aureus MRSA BAA-42; assay: In vivo protection of infected mice; set-up: species or system Kungming mice; conditions: mice, i.p. infection 5.5 × 10^5 cfu/ml
Experimental: as §2, §3, §4, §5

[8] = tested on: Staphylococcus aureus MRSA BAA-42; assay: microbe, parasite or virus in culture; format: cell-based; conditions: Staphylococcus aureus MRSA BAA-42
[9] = tested on: Staphylococcus aureus MRSA 02-18; assay: microbe, parasite or virus in culture; format: cell-based; conditions: Staphylococcus aureus MRSA 02-18
[10] = tested on: Staphylococcus aureus ATCC 29213; assay: MIC against challenge strain (Table 3); format: cell-based
Escherichia coli 02-1-65 [11] = assay: In vivo protection of infected mice; set-up: species or system Kungming mice; conditions: i.p. infection 3.3 × 10^5 cfu/ml
Experimental: as §2
(§6) The agents described above were diluted with sterilized water to final concentrations of 10 mg/L, 5 mg/Land 2.5 mg/L. […]
as §5

[12] = tested on: Staphylococcus aureus ATCC 29213; assay: In vivo protection of infected mice; set-up: species or system Kungming mice; conditions: i.p. infection 3.6 × 10^5 cfu/ml
Experimental: as §2, §6, §5

Escherichia coli 02-1-65 [13] = assay: MIC against challenge strain (Table 3); format: cell-based
[14] = tested on: ATCC 700671 PRSP (S. pneumoniae); assay: In vivo protection effects of Ph-SP; set-up: species or system mice; conditions: 5 animals
Experimental: To assess the in vivo effect of Ph-SP, mice were injected with ATCC 700671 PRSP intraperitoneally, followed by intravenous injections of PH-SP or controls.
One hour after administration of the fatal dose of ATCC 700671 PRSP (10^5 CFU/ml), each mouse was injected through the tail vein with test agents at three dosages as described in Table 4.

ATCC 700802 VRE cells = assay: Ph-EF protection of ATCC 700802 infected mice; format: in vivo; conditions: 5 animals
Experimental: To assess in vivo effects of Ph-EF, mice were injected with a fatal dosage of ATCC 700802 VRE cells intraperitoneally. […] Mice were inspected every 24 hours for 7-14 days. Dead mice would be counted as positive results.

[15] = tested on: S. pneumoniae ATCC 700671 (Penicillin-resistant SP); conditions: 5 ug/ml
[16] = tested on: vancomycin-sensitive Enterococcus ATCC29212; conditions: 3 ug/ml; ATCC 29212 cells
MRSA strain ATCC BAA-42 = assay: Electron micrographs of bactericidal effects; format: cell-based, S. aureus; conditions: Ph-SA 50 μg/ml 0.5 hrs; wild type colicin Ia 50 μg/ml 2 hrs; AgrDI 10 μg/ml 2 hrs
Source text: Electron Micrographs of Bactericidal Effects of Ph-SA1 Against ATCC BAA-42 MRSA Strain Cells (1% Phosphotungstic Acid. 25,000×)

[17] = tested on: S. pneumoniae BQIOC 31201 (non-resistant); conditions: 5 ug/ml; S. pneumoniae BQIOC 31201
[18] = 1st Time, i.v. treatment after one hour
[19] = 2nd Time (value in parentheses), i.v. treatment

sodium penicillin
MIC50 (Enterococcus (20)): 32 µg/mL | MIC90 (Enterococcus (20)): 64 µg/mL | MIC Scope [1]: 1˜128 mg/l | MIC50 [2]: 8 µg/mL | MIC90 [2]: 64 µg/mL | MIC50 [3]: 4 µg/mL | MIC90 [3]: 32 µg/mL | MIC Scope [3]: 0.125˜128 mg/l | MIC [4]: 2 µg/mL | ED50 [5, 18]: 3.16 mg/kg | ED50 [5, 19]: (3.08) mg/kg | ED50 [6, 18]: 7.28 mg/kg | ED50 [6, 19]: (11.33) mg/kg | ED50 [7, 18]: >10 mg/kg | ED50 [7, 19]: (14.71) mg/kg | MIC [8]: 8 µg/mL | MIC [9]: >16 µg/mL | MIC [10]: 16 µg/mL | ED50 (Escherichia coli 02-1-65 [11]; [18]): >30.77 mg/kg | ED50 (Escherichia coli 02-1-65 [11]; [19]): (>30.77) mg/kg | ED50 [12, 18]: 10.75 mg/kg | ED50 [12, 19]: (9.84) mg/kg | MIC (Escherichia coli 02-1-65 [13]): >128 µg/mL | Death distribution in hours 24 h ([14]; 5 mg/kg tail vein): 3 | Death distribution in hours 48 h ([14]; 5 mg/kg tail vein): 0 | Death distribution in hours 72 h ([14]; 5 mg/kg tail vein): 0 | Death distribution in hours 96 h ([14]; 5 mg/kg tail vein): 0 | Death distribution in hours 120 h ([14]; 5 mg/kg tail vein): 0 | Death distribution in hours 144 h ([14]; 5 mg/kg tail vein): 0 | Death distribution in hours 168 h ([14]; 5 mg/kg tail vein): 0 | Number of Death ([14]; 5 mg/kg tail vein): 3 | Death distribution in hours 24 h ([14]; 10 mg/kg tail vein): 3 | Death distribution in hours 48 h ([14]; 10 mg/kg tail vein): 0 | Death distribution in hours 72 h ([14]; 10 mg/kg tail vein): 0 | Death distribution in hours 96 h ([14]; 10 mg/kg tail vein): 0 | Death distribution in hours 120 h ([14]; 10 mg/kg tail vein): 0 | Death distribution in hours 144 h ([14]; 10 mg/kg tail vein): 0 | Death distribution in hours 168 h ([14]; 10 mg/kg tail vein): 0 | Number of Death ([14]; 10 mg/kg tail vein): 3 | Death distribution in hours 24 h (ATCC 700802 VRE cells; 5 mg/kg intravenously): 0 | Death distribution in hours 48 h (ATCC 700802 VRE cells; 5 mg/kg intravenously): 1 | Death distribution in hours 72 h (ATCC 700802 VRE cells; 5 mg/kg intravenously): 1 | Death distribution in hours 96 h (ATCC 700802 VRE cells; 5 mg/kg intravenously): 1 | Death distribution in hours 120 h (ATCC 700802 VRE cells; 5 mg/kg intravenously): 0 | Death distribution in hours 144 h (ATCC 700802 VRE cells; 5 mg/kg intravenously): 0 | Death distribution in hours 168 h (ATCC 700802 VRE cells; 5 mg/kg intravenously): 0 | Number of Death (ATCC 700802 VRE cells; 5 mg/kg intravenously): 3 | Death distribution in hours 24 h (ATCC 700802 VRE cells; 10 mg/kg intravenously): 0 | Death distribution in hours 48 h (ATCC 700802 VRE cells; 10 mg/kg intravenously): 0 | Death distribution in hours 72 h (ATCC 700802 VRE cells; 10 mg/kg intravenously): 0 | Death distribution in hours 96 h (ATCC 700802 VRE cells; 10 mg/kg intravenously): 0 | Death distribution in hours 120 h (ATCC 700802 VRE cells; 10 mg/kg intravenously): 0 | Death distribution in hours 144 h (ATCC 700802 VRE cells; 10 mg/kg intravenously): 0 | Death distribution in hours 168 h (ATCC 700802 VRE cells; 10 mg/kg intravenously): 0 | Number of Death (ATCC 700802 VRE cells; 10 mg/kg intravenously): 0 | inhibition of cell growth [15]: did not have a growth inhibitory effect | inhibition of cell growth [16]: inhibited cell growth

B1: wild type colicin Ia: wild type colicin Ia, channel forming polypeptide without targeting agent (protein)
chain: MSDPVARGITNPGAESLGYDSDGHEIMAVASPIYVASNPPRVASPVFHGTPPAWSSFGNKTIWGGNEWVASPDSPTRSDIEKRDKEITAYKNTLSAQQKENENKRTEAGKRLSAAIAAREKDENTLKTLRAGNADAADITRQEFRLLQAELREYGFRTEIAGYDALRLHTESRMLFADADSLRISPREARSLIEQAEKRQKDAQNADKKAADMLAEYERRKGILDTRLSELEKNGGAALAVLDAQQARLLGQQTRNDRAISEARNKLSSVTESLNTARNALTRAEQQLTQQKNTPDGKTIVSPEKFPGRSSTNHSIVVSGDPRFAGTIKITTSAVIDNRANLNYLLSHSGLDYKRNILNDRNPVVTEDVEGDKKIYNAEVALAEWDKLRQRLLDARNKITSAESAVASNSARNNLSARTNEQKHANDALNALLKEKENIRNQLSGINQKIAEEKRKQDELKATKDAINFTTEFLKSVSEKYGAKAEQLAREMAGQAKGKKIRNVEEALKTYEKYRADINKKINAKDRAAIAAALESVKLSDISSNLNRFSRGLGYAGKFTSLADWITEFGKAVARGTENWRPLFVKTETIIAGNAATALVALALVFSILTGSALGIIGYGLLMAVTGALIDESLVEKANKFWGI
modifications: E. coli
notes: wild type colicin Ia, channel forming polypeptide without targeting agent
bactericidal effect / effect on cell growth (electron micrographs) (MRSA strain ATCC BAA-42): no effect on cell growth | inhibition of cell growth [17]: did not inhibit growth | inhibition of cell growth [16]: failed to inhibit growth
